Results: ChEMBL document CHEMBL5226385, “The Antiangiogenic and Antitumor Effects of Scoparasin B in Non-Small-Cell Lung Cancer” (J Nat Prod, 2023)
Activity calls are given as the source filed them.

Columns and labels:
NCI-H1299 = assay: Antitumor activity against human NCI-H1299 cells xenografted in BALB/c nude mouse assessed as reduction in Ki67 expression in tumor at 0.75 to 1.5 mg/kg, ip administered every other day for 20 days by immunohistochemical analysis; assay type: functional, organism-based; details: dose 0.75-1.5 mg/kg, time 20.0 day
HUVEC = assay: Downregulation of VEGF-A protein expression in human HUVEC cells at 5 to 15 nM incubated for 36 hrs by western blot analysis; assay type: functional, cell-based; details: dose 5-15 nM
Mus musculus = assay: Inhibition of vasculogenic-mimicry in BALB/c nude mouse xenografted with human NCI-H1299 cells assessed as reduction in pericyte coverage around CD31-positive endothelial blood vessels at 0.75 to 1.5 mg/kg, ip administered every other day for […] by immunofluorescence analysis; assay type: functional, organism-based; details: dose 0.75-1.5 mg/kg

COc1ccc(C[C@@H]2NC(=O)[C@@]34OC(=O)O/C=C/[C@@](C)(O)C(=O)[C@@H](C)C/C=C/[C@H]3[C@H](O)[C@](C)(O)[C@@H](C)[C@@H]24)cc1 [SCOPARASIN B]
active: Activity (NCI-H1299) | inhibition (HUVEC) | inhibition (Mus musculus)
